In patent publication US9308198B2, “Treatment, prevention, and reversal of alcohol-induced brain disease” (priority 2006, dated 2016):

Key:
[1] = system: choline acetyltransferase (ChAT) mRNA; details: ethanol-exposed pup cerebellar tissue vs control
Experimental: (§1) Total RNA was isolated from brain tissue using TRIzol reagent (Invitrogen, Carlsbad, Calif.) according to the manufacturer's protocol. RNA concentrations and purity were determined from the absorbances measured at 260 nm and 280 nm. RNA (2 μg) was reverse transcribed using the AMV First Strand cDNA synthesis kit (Roche Diagnostics Corporation, Indianapolis, Ind.) and random oligodeoxynucleotide primers. Real time quantitative RT-PCR was used to measure mRNA levels of insulin, IGF-I, and IGF-II growth factors, their corresponding receptors, neuronal (Hu), astrocytic (glial fibrillary acidic protein; GFAP), oligodendroglial (myelin-associated glycoprotein-1; MAG-1), microglial (AIF1), and endothelial (endothelin-1; ET-1) cell genes, acetyl cholinesterase (AChE), and choline acetyltransferase (ChAT). Ribosomal 18S RNA levels measured in parallel reactions were used to calculate relative abundance of the mRNA transcripts (Myers et al., Trends Biochem. Sci. 19:289 (1994); Baltensperger et al., Science 260:1950 (1993)). PCR amplifications were performed in 25 μl reactions containing cDNA generated from 2.5 ng of original RNA template, 300 nM each of gene specific forward and reverse primer (Table 1), and 12.5 μl of 2× QuantiTect SYBR Green PCR Mix (Qiagen Inc, Valencia, Calif.). […]

[2] = system: acetylcholinesterase (AChE) mRNA; details: ethanol-exposed pup cerebellar tissue vs control
Experimental: as §1

[3] = system: lipid peroxidation and DNA damage in brain; details: rat, in vivo
From the text: (§2) Male (˜200 g) Long Evans rats (Charles River Laboratories, Cambridge, Mass.) were fed isocaloric liquid diets (BioServ, Frenchtown, N.J.) in which ethanol comprised 0% or 37% of the caloric content (9.25% v/v) for 6 weeks (Yeon et al., Hepatology 38:703 (2003)). A chow fed control group was also studied. Rats were monitored daily to ensure equivalent food consumption and maintenance of body weight. Upon sacrifice, the brains were harvested and either immersion fixed in Histochoice fixative (Amresco Corp., Solon, Ohio) for paraffin embedding, or sliced fresh to micro-dissect temporal cortex, hypothalamus, and cerebellum. The fresh tissue blocks were snap frozen in a dry ice-methanol bath and stored at −80° C. for mRNA and protein studies.
(§3) Fixed brains were sectioned in the coronal plane along standardized landmarks and embedded in paraffin. Paraffin-embedded sections (8 μm thick) were stained with hematoxylin and eosin, or immunostained with monoclonal antibodies to 8-hydroxy-deoxyguanosine (8-OHdG) (Oxis Research) or 4-hydroxynonenol (HNE) (Chemicon International, Temecula, Calif.) to detect DNA damage and lipid peroxidation, respectively. Prior to immunostaining, deparaffinized, re-hydrated sections were treated with 0.1 mg/ml saponin in phosphate buffered saline (10 mM sodium phosphate, 0.9% NaCl, pH 7.4; PBS) for 20 minutes at room temperature, followed by 3% hydrogen peroxide in methanol for 10 minutes to quench endogenous peroxidase activity, and then 30 minutes in SuperBlock-TBS (Pierce Chemical Co., Rockford, Ill.) at room temperature to block non-specific binding sites. The sections were incubated overnight at 4° C. with 0.5-1 μg/ml of primary antibody. Immunoreactivity was detected with biotinylated secondary antibody, avidin biotin horseradish peroxidase complex (ABC) reagents, and diaminobenzidine as the chromogen (Vector Laboratories, Burlingame, Calif.) (Lam et al. J. Biol. Chem. 269:20648 (1994)). The tissue sections were counterstained with hematoxylin and examined by light microscopy.

cerebellar cortex = details: rat, in vivo
From the text: as §2, §3

cerebellar ATP content = details: rat, in vivo
Experimental: (§4) Studies were done to characterize the degree to which ethanol-associated impairments in receptor binding were associated with reductions in insulin and IGF-I receptor tyrosine kinase activities, and insulin and IGF-I receptor protein expression. Receptor protein levels were measured by Western blotting with digital image densitometry.

[4] = system: IGF-I receptor tyrosine kinase; details: cerebellar tissue, ethanol-exposed relative to control pups; normalized to receptor protein; not dose-dependent
Experimental: (§5) Insulin or IGF-I receptor molecules were immunoprecipitated from individual 100 μg protein samples using rabbit polyclonal antibodies (1 μg/ml) and Protein A sepharose (Amersham-Pharmacia, Arlington Heights, Ill.) (Ausubel et al, (2002) Current Protocols in Molecular Biology. John Wiley & Sons New York). Receptor tyrosine kinase activity was measured in the immune precipitates using a non-isotopic assay (Chemicon International, Temecula, Calif.) according to the manufacturer's protocol with small modifications. Briefly, tyrosine phosphorylation of the biotinylated synthetic peptide substrate captured onto streptavidin-coated wells was detected with horseradish peroxidase conjugated anti-phospho-tyrosine and SuperSignal West Pico chemiluminescent substrate (Pierce Chemical Co., Rockford, Ill.). Luminescence was measured in a TopCount machine (Packard Instrument Co., Meriden, Conn.). […]
as §4

[5] = system: insulin receptor tyrosine kinase; details: cerebellar tissue, ethanol-exposed relative to control pups; normalized to receptor protein; not dose-dependent
Experimental: as §5, §4

[6] = system: cerebellar membrane cholesterol content; details: 8% ethanol diet group, pups
Experimental: Cholesterol content was measured using the Amplex Red assay kit (Molecular Probes, Eugene, Oreg.) according to the manufacturer's protocol. […] Briefly, tissue homogenates were prepared in RIPA buffer as described above. Samples, serially diluted in 1× reaction buffer (provided with the kit), were incubated with 150 μM Amplex Red reagent, 1 U/ml horseradish peroxidase, 1 U/ml cholesterol oxidase, and 0.1 U/ml cholesterol esterase in final reaction volumes of 100 μl. Reactions were incubated at 37° C. for 30 minutes and fluorescence was measured in a Fluorocount microplate reader (Packard Instrument Co., Meriden, Conn.) (Ex 560 nm/Em 590 nm). A standard curve was simultaneously generated using a cholesterol standard provided with the kit. The levels of cholesterol were normalized to protein concentration in the samples.

AChE mRNA = details: chronic ethanol feeding; temporal lobe, hypothalamus, cerebellum
From the text: as §2
(§6) Total RNA was isolated from brain tissue using TRIzol reagent (Invitrogen, Carlsbad, Calif.) according to the manufacturer's protocol. RNA concentrations and purity were determined from the absorbances measured at 260 nm and 280 nm. […] Real time quantitative RT-PCR was used to measure mRNA levels of insulin, IGF-I, and IGF-II growth factors, their corresponding receptors, neuronal (Hu), astrocytic (glial fibrillary acidic protein; GFAP), oligodendroglial (myelin-associated glycoprotein-1; MAG-1), microglial (AIF1), and endothelial (endothelin-1; ET-1) cell genes, acetyl cholinesterase (AChE), and choline acetyltransferase (ChAT). […]

ChAT mRNA = details: chronic ethanol feeding; hypothalamus and cerebellum
From the text: as §2, §6

Structure (SMILES): CCO [ethanol]
- ChAT mRNA expression [1]: significant reductions
- AChE mRNA expression [2]: increases
- 8-OHdG immunoreactivity (DNA damage) [3]: only detected in scattered cells
- HNE immunoreactivity (lipid peroxidation) [3]: conspicuously increased cellular labeling
- structural abnormalities in the cerebellar cortex (cerebellar cortex): loss of Purkinje cells and reduced densities of cells within the internal granule layer
- cerebellar ATP content (cerebellar ATP content): dose-dependent progressive reductions
- IGF-I receptor tyrosine kinase activity [4]: significantly reduced
- insulin receptor tyrosine kinase activity [5]: significantly reduced
- reduction of cerebellar membrane cholesterol content relative to control [6]: ~50%
- expression of AChE (AChE mRNA): did not significantly alter
- ChAT mRNA expression (ChAT mRNA): significantly reduced
